Assay results as given in ChEMBL document CHEMBL1201862, “PubChem BioAssay data set” (2004).
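1) Cells in 96-well plates. 2) Compound, 48 h, 5 concentrations. 3) Linear interpolation between surrounding doses. 4) Unreached endpoint = highest concentration. At the GI50, growth is halved.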 Activity calls are given as the source filed them. Cut-off read from the data, not from the text of the source: active = GI50 up to about 1.1 µM and inactive = higher.

Columns and labels:
Experiment in all cases: inhibition of tumour cell growth, NCI panel, 48 h
CAKI-1 = test system: CAKI-1
HCC 2998 = test system: HCC 2998
HOP-92 = test system: HOP-92
IGROV-1 = test system: IGROV-1
MCF7 = test system: MCF7
MDA-MB-435 = test system: MDA-MB-435
MOLT-4 = test system: MOLT-4
NCI-H23 = test system: NCI-H23
NCI/ADR-RES = test system: NCI/ADR-RES
OVCAR-3 = test system: OVCAR-3
OVCAR-5 = test system: OVCAR-5
OVCAR-8 = test system: OVCAR-8
PC-3 = test system: PC-3
RPMI-8226 = test system: RPMI-8226
SF-268 = test system: SF-268
SK-MEL-28 = test system: SK-MEL-28
SK-MEL-5 = test system: SK-MEL-5
SN12C = test system: SN12C
SNB-19 = test system: SNB-19
TK-10 = test system: TK-10

Question: With `CC(=O)Oc1ccc2c(c1)c1c(=O)oc(C)nc1n2Cc1ccccc1` as the compound, how does the GI50 (CAKI-1) read?
Answer: 4.99 µM (inactive)

Question: What about the GI50 (HCC 2998) of the same compound?
Answer: > 100 µM (inactive)

Question: And the GI50 (HOP-92)?
Answer: 34 µM (inactive)

Question: What about the GI50 (IGROV-1) of the same compound?
Answer: 51.4 µM (inactive)

Question: What about the GI50 (MCF7) of the same compound?
Answer: 47.8 µM (inactive)

Question: And the GI50 (MDA-MB-435)?
Answer: 28.3 µM (inactive)

Question: And the GI50 (MOLT-4)?
Answer: 71.8 µM (inactive)

Question: What about the GI50 (NCI-H23) of the same compound?
Answer: > 63.5 µM (inactive)

Question: What about the GI50 (NCI/ADR-RES) of the same compound?
Answer: 31.3 µM (inactive)

Question: And the GI50 (OVCAR-3)?
Answer: 77.6 µM (inactive)

Question: And the GI50 (OVCAR-5)?
Answer: > 84.5 µM (inactive)

Question: What about the GI50 (OVCAR-8) of the same compound?
Answer: 37.2 µM (inactive)

Question: What about the GI50 (PC-3) of the same compound?
Answer: 41.8 µM (inactive)

Question: What about the GI50 (RPMI-8226) of the same compound?
Answer: 56.4 µM (inactive)

Question: What about the GI50 (SF-268) of the same compound?
Answer: 17.6 µM (inactive)

Question: What about the GI50 (SK-MEL-28) of the same compound?
Answer: 46.2 µM (inactive)

Question: What about the GI50 (SK-MEL-5) of the same compound?
Answer: 40 µM (inactive)

Question: And the GI50 (SN12C)?
Answer: 66.8 µM (inactive)

Question: What about the GI50 (SNB-19) of the same compound?
Answer: 69.8 µM (inactive)

Question: And the GI50 (TK-10)?
Answer: 35.2 µM (inactive)

Question: With `CCOC(=O)/C=C(\C(=O)OCC)n1cc(C)c(=O)n(Cc2cn(COCCOC(C)=O)nn2)c1=O` as the compound, how does the GI50 (CAKI-1) read?
Answer: 2.84 µM (inactive)

Question: What about the GI50 (HCC 2998) of the same compound?
Answer: 22.9 µM (inactive)

Question: What about the GI50 (HOP-92) of the same compound?
Answer: 1.61 µM (inactive)

Question: And the GI50 (IGROV-1)?
Answer: 16.7 µM (inactive)

Question: What about the GI50 (MCF7) of the same compound?
Answer: 6.78 µM (inactive)

Question: What about the GI50 (MDA-MB-435) of the same compound?
Answer: 6.55 µM (inactive)

Question: And the GI50 (MOLT-4)?
Answer: 3.79 µM (inactive)

Question: And the GI50 (NCI-H23)?
Answer: 14.7 µM (inactive)

Question: And the GI50 (NCI/ADR-RES)?
Answer: 22.6 µM (inactive)

Question: And the GI50 (OVCAR-3)?
Answer: 13.2 µM (inactive)

Question: And the GI50 (OVCAR-5)?
Answer: 14.5 µM (inactive)

Question: And the GI50 (OVCAR-8)?
Answer: 8.43 µM (inactive)

Question: What about the GI50 (PC-3) of the same compound?
Answer: 20 µM (inactive)

Question: And the GI50 (RPMI-8226)?
Answer: 5.09 µM (inactive)

Question: And the GI50 (SF-268)?
Answer: 14.7 µM (inactive)

Question: And the GI50 (SK-MEL-28)?
Answer: 10.5 µM (inactive)

Question: What about the GI50 (SK-MEL-5) of the same compound?
Answer: 20.9 µM (inactive)

Question: What about the GI50 (SN12C) of the same compound?
Answer: 18.1 µM (inactive)

Question: What about the GI50 (SNB-19) of the same compound?
Answer: 19 µM (inactive)

Question: And the GI50 (TK-10)?
Answer: 4.97 µM (inactive)

Question: Which results are given for `C=C(CO)C(=O)OC1CC(=C)C2CC(O)C(C)C2C2OC(=O)C(=C)C12` (stereo not given)?
Answer: GI50 (CAKI-1): 19.3 µM (inactive); GI50 (HCC 2998): 21.7 µM (inactive); GI50 (HOP-92): 32.4 µM (inactive); GI50 (IGROV-1): 18.9 µM (inactive); GI50 (MCF7): 18.3 µM (inactive); GI50 (MDA-MB-435): 21.2 µM (inactive); GI50 (MOLT-4): 25.2 µM (inactive); GI50 (NCI-H23): > 100 µM (inactive); GI50 (NCI/ADR-RES): 44.7 µM (inactive); GI50 (OVCAR-3): 16 µM (inactive); GI50 (OVCAR-5): 30.9 µM (inactive); GI50 (OVCAR-8): 27.3 µM (inactive); GI50 (PC-3): 31.6 µM (inactive); GI50 (RPMI-8226): 24.5 µM (inactive); GI50 (SF-268): 20.7 µM (inactive); GI50 (SK-MEL-28): 24.3 µM (inactive); GI50 (SK-MEL-5): 24.3 µM (inactive); GI50 (SN12C): 18.2 µM (inactive); GI50 (SNB-19): 22.9 µM (inactive); GI50 (TK-10): 16.3 µM (inactive)

Question: How did the GI50 (CAKI-1) turn out when `CC[C@@]1(O)C(=O)OCc2c1cc1n(c2=O)Cc2cc3cc(OC)ccc3nc2-1` was run?
Answer: 0.00476 µM (active)

Question: What about the GI50 (HCC 2998) of the same compound?
Answer: 0.0276 µM (active)

Question: And the GI50 (HOP-92)?
Answer: 0.0114 µM (active)

Question: What about the GI50 (IGROV-1) of the same compound?
Answer: 0.106 µM (active)

Question: What about the GI50 (MCF7) of the same compound?
Answer: 0.0041 µM (active)

Question: What about the GI50 (MDA-MB-435) of the same compound?
Answer: 0.0441 µM (active)

Question: And the GI50 (MOLT-4)?
Answer: 0.00458 µM (active)

Question: And the GI50 (NCI-H23)?
Answer: 0.00902 µM (active)

Question: What about the GI50 (NCI/ADR-RES) of the same compound?
Answer: 0.073 µM (active)

Question: And the GI50 (OVCAR-3)?
Answer: 0.435 µM (active)

Question: And the GI50 (OVCAR-5)?
Answer: 0.0452 µM (active)

Question: What about the GI50 (OVCAR-8) of the same compound?
Answer: 0.0448 µM (active)

Question: And the GI50 (PC-3)?
Answer: 0.0364 µM (active)

Question: What about the GI50 (RPMI-8226) of the same compound?
Answer: 0.107 µM (active)

Question: And the GI50 (SF-268)?
Answer: 0.00509 µM (active)

Question: And the GI50 (SK-MEL-28)?
Answer: 0.372 µM (active)

Question: And the GI50 (SK-MEL-5)?
Answer: 0.0211 µM (active)

Question: And the GI50 (SN12C)?
Answer: 0.0245 µM (active)

Question: And the GI50 (SNB-19)?
Answer: 0.00843 µM (active)

Question: What about the GI50 (TK-10) of the same compound?
Answer: 3.01 µM (inactive)

Question: With `COc1cc2c3c4c1OCc1c5c(cc(c1-4)CC3[N+](C)(C)CC2)OCO5` (stereo not given) as the compound, how does the GI50 (CAKI-1) read?
Answer: > 100 µM (inactive)

Question: And the GI50 (HCC 2998)?
Answer: > 100 µM (inactive)

Question: What about the GI50 (HOP-92) of the same compound?
Answer: > 100 µM (inactive)

Question: And the GI50 (IGROV-1)?
Answer: > 100 µM (inactive)

Question: And the GI50 (MCF7)?
Answer: > 100 µM (inactive)

Question: And the GI50 (MDA-MB-435)?
Answer: > 100 µM (inactive)

Question: And the GI50 (MOLT-4)?
Answer: > 100 µM (inactive)

Question: What about the GI50 (NCI-H23) of the same compound?
Answer: 54.8 µM (inactive)

Question: What about the GI50 (NCI/ADR-RES) of the same compound?
Answer: > 80.5 µM (inactive)

Question: And the GI50 (OVCAR-3)?
Answer: > 89.9 µM (inactive)

Question: And the GI50 (OVCAR-5)?
Answer: > 100 µM (inactive)

Question: And the GI50 (OVCAR-8)?
Answer: > 72.9 µM (inactive)

Question: What about the GI50 (PC-3) of the same compound?
Answer: > 100 µM (inactive)

Question: What about the GI50 (RPMI-8226) of the same compound?
Answer: > 100 µM (inactive)

Question: What about the GI50 (SF-268) of the same compound?
Answer: 2.79 µM (inactive)

Question: And the GI50 (SK-MEL-28)?
Answer: > 100 µM (inactive)

Question: What about the GI50 (SK-MEL-5) of the same compound?
Answer: > 100 µM (inactive)

Question: What about the GI50 (SN12C) of the same compound?
Answer: 3.21 µM (inactive)

Question: And the GI50 (SNB-19)?
Answer: 4.33 µM (inactive)

Question: What about the GI50 (TK-10) of the same compound?
Answer: > 100 µM (inactive)

Question: Which results are given for `O=c1[nH]nc(Cc2ccccc2)n1CCO`?
Answer: GI50 (CAKI-1): > 100 µM (inactive); GI50 (HCC 2998): > 100 µM (inactive); GI50 (HOP-92): > 100 µM (inactive); GI50 (IGROV-1): > 100 µM (inactive); GI50 (MCF7): > 100 µM (inactive); GI50 (MDA-MB-435): > 100 µM (inactive); GI50 (MOLT-4): > 100 µM (inactive); GI50 (NCI-H23): > 100 µM (inactive); GI50 (NCI/ADR-RES): > 100 µM (inactive); GI50 (OVCAR-3): > 100 µM (inactive); GI50 (OVCAR-5): > 100 µM (inactive); GI50 (OVCAR-8): > 100 µM (inactive); GI50 (PC-3): > 100 µM (inactive); GI50 (RPMI-8226): > 100 µM (inactive); GI50 (SF-268): > 100 µM (inactive); GI50 (SK-MEL-28): > 100 µM (inactive); GI50 (SK-MEL-5): > 100 µM (inactive); GI50 (SN12C): > 100 µM (inactive); GI50 (SNB-19): > 100 µM (inactive); GI50 (TK-10): > 100 µM (inactive)

Question: Which results are given for `NCC[Se][Se]CCN`?
Answer: GI50 (CAKI-1): 10.7 µM (inactive); GI50 (HCC 2998): 11.9 µM (inactive); GI50 (HOP-92): 19.3 µM (inactive); GI50 (IGROV-1): 9.23 µM (inactive); GI50 (MCF7): 8.79 µM (inactive); GI50 (MDA-MB-435): 12.3 µM (inactive); GI50 (MOLT-4): 5.25 µM (inactive); GI50 (NCI-H23): 15 µM (inactive); GI50 (NCI/ADR-RES): 9.31 µM (inactive); GI50 (OVCAR-3): 13.9 µM (inactive); GI50 (OVCAR-5): 5.56 µM (inactive); GI50 (OVCAR-8): 10.6 µM (inactive); GI50 (PC-3): 10.9 µM (inactive); GI50 (RPMI-8226): 12.9 µM (inactive); GI50 (SF-268): 16 µM (inactive); GI50 (SK-MEL-28): 13.3 µM (inactive); GI50 (SK-MEL-5): 5.66 µM (inactive); GI50 (SN12C): 6.76 µM (inactive); GI50 (SNB-19): 8.47 µM (inactive); GI50 (TK-10): 13.3 µM (inactive)
